PMC5433425 (PeerJ, 2017)
Several values for one entry are separate records, joined by “and”; a condition that tells them apart may be missing. Equal values may be shown once. Peptide text beside a SMILES is read from it. * marks the point of attachment. βNA = c1ccc2cc(N*)ccc2c1

Key:
[1] = tested on: E. coli AG100tet; assay: EtBr efflux by real-time fluorometry; details: 80 µM
[2] = tested on: E. coli AG100tet (AcrAB overexpressing); assay: MIC, broth microdilution; format: cell-based, Escherichia coli; details: Escherichia coli
[3] = tested on: E. coli AG100tet; assay: EtBr accumulation by real-time fluorometry; details: EtBr 2 µg/ml + inhibitor 80 µM
[4] = tested on: E. coli AG100A (AcrAB pump-deficient); assay: MIC, broth microdilution; format: cell-based, Escherichia coli; details: Escherichia coli
[5] = tested on: E. coli AG100; assay: Membrane permeability assay (Live/Dead BacLight)
[6] = 80 uM, raw well reading, listed as PAN

NC(N)=NCCC[C@H](NC(=O)[C@@H](N)Cc1ccccc1)C(=O)Nc1ccc2ccccc2c1 [PAβN] (H-Phe-Arg-βNA)
Fluorescence raw data, Channel Cycling A.530/585hp ([1]; cycle 34, + glucose): 1.608
Fluorescence raw data, Channel Cycling A.530/585hp ([1]; cycle 34, without glucose): 2.188
Fluorescence raw data, Channel Cycling A.530/585hp ([1]; cycle 35, + glucose): 1.636
Fluorescence raw data, Channel Cycling A.530/585hp ([1]; cycle 35, without glucose): 2.154
Fluorescence raw data, Channel Cycling A.530/585hp ([1]; cycle 36, + glucose): 1.655
Fluorescence raw data, Channel Cycling A.530/585hp ([1]; cycle 36, without glucose): 2.1525
Fluorescence raw data, Channel Cycling A.530/585hp ([1]; cycle 37, + glucose): 1.639
Fluorescence raw data, Channel Cycling A.530/585hp ([1]; cycle 37, without glucose): 2.17
Fluorescence raw data, Channel Cycling A.530/585hp ([1]; cycle 38, + glucose): 1.617
Fluorescence raw data, Channel Cycling A.530/585hp ([1]; cycle 38, without glucose): 2.15
Fluorescence raw data, Channel Cycling A.530/585hp ([1]; cycle 39, + glucose): 1.593
Fluorescence raw data, Channel Cycling A.530/585hp ([1]; cycle 39, without glucose): 2.185
Fluorescence raw data, Channel Cycling A.530/585hp ([1]; cycle 40, + glucose): 1.564
Fluorescence raw data, Channel Cycling A.530/585hp ([1]; cycle 40, without glucose): 2.132
Fluorescence raw data, Channel Cycling A.530/585hp ([1]; cycle 41, + glucose): 1.567
Fluorescence raw data, Channel Cycling A.530/585hp ([1]; cycle 41, without glucose): 2.08
Fluorescence raw data, Channel Cycling A.530/585hp ([1]; cycle 42, + glucose): 1.587
Fluorescence raw data, Channel Cycling A.530/585hp ([1]; cycle 42, without glucose): 2.131
Fluorescence raw data, Channel Cycling A.530/585hp ([1]; cycle 43, + glucose): 1.59
Fluorescence raw data, Channel Cycling A.530/585hp ([1]; cycle 43, without glucose): 2.079
Fluorescence raw data, Channel Cycling A.530/585hp ([1]; cycle 44, + glucose): 1.59
Fluorescence raw data, Channel Cycling A.530/585hp ([1]; cycle 44, without glucose): 2.093
Fluorescence raw data, Channel Cycling A.530/585hp ([1]; cycle 45, without glucose): 2.121
Fluorescence raw data, Channel Cycling A.530/585hp ([1]; cycle 46, without glucose): 2.065
Fluorescence raw data, Channel Cycling A.530/585hp ([1]; cycle 47, without glucose): 2.081
Fluorescence raw data, Channel Cycling A.530/585hp ([1]; cycle 48, without glucose): 2.1149
Fluorescence raw data, Channel Cycling A.530/585hp ([1]; cycle 49, without glucose): 2.071
Fluorescence raw data, Channel Cycling A.530/585hp ([1]; cycle 50, without glucose): 2.047
Fluorescence raw data, Channel Cycling A.530/585hp ([1]; cycle 51, without glucose): 2.071
Fluorescence raw data, Channel Cycling A.530/585hp ([1]; cycle 52, without glucose): 2.107
Fluorescence raw data, Channel Cycling A.530/585hp ([1]; cycle 53, without glucose): 2.082
Fluorescence raw data, Channel Cycling A.530/585hp ([1]; cycle 54, without glucose): 2.046
Fluorescence raw data, Channel Cycling A.530/585hp ([1]; cycle 55, without glucose): 2.03
Fluorescence raw data, Channel Cycling A.530/585hp ([1]; cycle 56, without glucose): 2.023
Fluorescence raw data, Channel Cycling A.530/585hp ([1]; cycle 57, without glucose): 2.015
Fluorescence raw data, Channel Cycling A.530/585hp ([1]; cycle 58, without glucose): 2.049
Fluorescence raw data, Channel Cycling A.530/585hp ([1]; cycle 59, without glucose): 2.011
Fluorescence raw data, Channel Cycling A.530/585hp ([1]; cycle 60, without glucose): 2.05
Fluorescence raw data, Channel Cycling A.530/585hp ([1]; cycle 61, without glucose): 1.991
MIC [2]: > 200 µg/mL and > 385 µM
EtBr fluorescence ([3]; cycle 1): 11.1278
EtBr fluorescence ([3]; cycle 2): 12.695
EtBr fluorescence ([3]; cycle 3): 14.0098
EtBr fluorescence ([3]; cycle 4): 14.9916
EtBr fluorescence ([3]; cycle 5): 15.9316
EtBr fluorescence ([3]; cycle 6): 16.6928
EtBr fluorescence ([3]; cycle 7): 17.1135
EtBr fluorescence ([3]; cycle 8): 17.7313
EtBr fluorescence ([3]; cycle 9): 18.0085
EtBr fluorescence ([3]; cycle 10): 18.4427
EtBr fluorescence ([3]; cycle 11): 18.7463
EtBr fluorescence ([3]; cycle 12): 18.8264
EtBr fluorescence ([3]; cycle 13): 19.2404
EtBr fluorescence ([3]; cycle 14): 19.2594
EtBr fluorescence ([3]; cycle 15): 19.2787
EtBr fluorescence ([3]; cycle 16): 19.7369
EtBr fluorescence ([3]; cycle 17): 19.738
EtBr fluorescence ([3]; cycle 18): 20.2008
EtBr fluorescence ([3]; cycle 19): 19.7958
EtBr fluorescence ([3]; cycle 20): 20.1672
EtBr fluorescence ([3]; cycle 21): 20.6387
EtBr fluorescence ([3]; cycle 22): 20.6639
EtBr fluorescence ([3]; cycle 23): 21.3214
EtBr fluorescence ([3]; cycle 24): 21.3175
EtBr fluorescence ([3]; cycle 25): 21.5239
EtBr fluorescence ([3]; cycle 26): 21.9663
EtBr fluorescence ([3]; cycle 27): 22.3215
EtBr fluorescence ([3]; cycle 28): 22.6925
EtBr fluorescence ([3]; cycle 29): 23.1641
EtBr fluorescence ([3]; cycle 30): 23.4062
MIC [4]: 50 µg/mL and 96.3 µM
BacLight Live/Dead fluorescence 485/20,528/20 [5, 6]: 168 and 192
BacLight Live/Dead fluorescence 485/20,590/35 [5, 6]: 43 and 57
membrane permeability increase / membrane permeation ([5]; AG100, 80 µM): 14%
